Laboratory results from patent US10392354B2, “Highly selective anti-cancer agents targeting non-small cell lung cancer and other forms of cancer” (The University of Toledo, priority 2013, dated 2019).

Key:
Format in all cases: cell-based
NCI-H522 cells = assay: lethality / cell viability of NCI-H522 cells; conditions: for lethality / activity on NCI-H522 cell line: concentration not given
Protocol: FIGS. 5A-5C: The effect of compound 1f on NCI-H522 cells at 10 μM. […] Interval between images shown is 1 hour.
FIGS. 5A-5C show the effects of 1f on NCI-H522 cells at 10 μM.
The effects of compound 2 on NCI-H522 cells, other cancer cells, and normal cell lines were evaluated. […] FIGS. 3A-3C show the effects of compound 2 on tubulin and mitochondrial function.

mitochondrial potential = assay: TMRE staining of mitochondrial membrane potential in NCI-H522 cells; conditions: during the death process
Protocol: (§1) FIGS. 3A-3C: The effect of compound 2 (10 μM) on tubulin and mitochondrial function. […] Arrowheads: two cells that have lost mitochondrial membrane potential; phase contrast indicates these are dead cells.
(§2) The effects of compound 2 on NCI-H522 cells, other cancer cells, and normal cell lines were evaluated. Compound 2 killed NCI-H522 cells at 10 μM. […] FIGS. 3A-3C show the effects of compound 2 on tubulin and mitochondrial function.

tubulin = assay: cell staining with antibodies to tubulin in NCI-H522 cells; conditions: in interphase or mitosis
Protocol: as §1, §2

SMILES: C#Cc1nc(C2=C(C)[C@@H](O)CC2)cs1 [Compound 2]
- cell killing of NCI-H522 cells (NCI-H522 cells; 10 μM): killed
- mitochondrial membrane potentials (mitochondrial potential): intact until late in the death process
- effects on tubulin (tubulin): no overt effects

SMILES: C#Cc1nc(C2=C(C)C(=O)CC2)cs1 [Compound 3, 3-(2-ethynylthiazol-4-yl)-2-methylcyclopent-2-enone]
- lethality / activity on NCI-H522 cell line (NCI-H522 cells): lethal

SMILES: C#Cc1nc(C2=C(C)C(=O)C(Cc3ccccc3)C2)cs1 (centres unmarked) [Compound 4, 5-benzyl-3-(2-ethynylthiazol-4-yl)-2-methylcyclopent-2-enone]
- lethality / activity on NCI-H522 cell line (NCI-H522 cells): did not compromise
